Results published in PMC7315563, “Bioactive fluorenes. Part III: 2,7-dichloro-9H-fluorene-based thiazolidinone and azetidinone analogues as anticancer and antimicrobial against multidrug resistant strains agents” (BMC Chemistry, 2020).
Converted amounts (≈) assume the structure as drawn.

Tests used:
[1] = tested on: Klebsiella pneumoniae (K. pneumoniae), multidrug resistant clinical isolate; experiment: agar well diffusion assay; type: cell-based; details: 24 h, 500 µg/mL of tested compound
In short: (§1)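 Multidrug-resistant clinical isolates swabbed on Mueller–Hinton agar at about 1–5 × 10^5 CFU/mL; 0.5 cm wells received 50 μL compound at 500 μg/mL in 1% DMSO. Incubation 24 h, 37 °C for bacteria and C. albicans, 25 °C for Aspergillus; inhibition zone diameter measured in mm.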

[2] = tested on: Pseudomonas aeruginosa (P. aeruginosa), multidrug resistant clinical isolate; experiment: agar well diffusion assay; type: cell-based; details: 24 h, 500 µg/mL of tested compound
In short: as §1

[3] = tested on: Staphylococcus aureus (S. aureus), multidrug resistant clinical isolate; experiment: agar well diffusion assay; type: cell-based; details: S. aureus, 500 µg/mL of tested compound, 24 h; for zone of inhibition at 500 µg/mL: Staphylococcus aureus
In short: as §1

[4] = tested on: MDA-MB-231 human breast cancer cells; experiment: cell viability assay (MTT); type: cell-based; details: 24 h; for viability at 1 µg/mL: read-out: Validity (%) for sample concentrations (µg/mL) 1; for viability at 10 µg/mL: read-out: Validity (%) for sample concentrations (µg/mL) 10; for viability at 31.25 µg/mL: read-out: Validity (%) for sample concentrations (µg/mL) 31.25; for viability at 62.5 µg/mL: read-out: Validity (%) for sample concentrations (µg/mL) 62.5; for viability at 125 µg/mL: read-out: Validity (%) for sample concentrations (µg/mL) 125; for viability at 250 µg/mL: read-out: Validity (%) for sample concentrations (µg/mL) 250; for viability at 500 µg/mL: read-out: Validity (%) for sample concentrations (µg/mL) 500
In short: (§2)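 Fluorene compounds are applied in fresh RPMI-1640 (10% FBS) to cells seeded the previous day at 5000 cells/well, using 0–500 µg/mL, and left for 24 h. MTT conversion, read at 570 nm, reports viability.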

[5] = tested on: WI-38 human normal fibroblast cells; experiment: cell viability assay (MTT); type: cell-based; details: 24 h; for viability at 31.25 µg/mL: read-out: Validity (%) for sample concentrations (µg/mL) 31.25; for viability at 62.5 µg/mL: 62.50 µg/mL, read-out: Validity (%) for sample concentrations (µg/mL) 62.50; for viability at 125 µg/mL: read-out: Validity (%) for sample concentrations (µg/mL) 125; for viability at 250 µg/mL: read-out: Validity (%) for sample concentrations (µg/mL) 250; for viability at 500 µg/mL: read-out: Validity (%) for sample concentrations (µg/mL) 500
In short: as §2

[6] = tested on: A549 human lung cancer cells; experiment: cell viability assay (MTT); type: cell-based; details: 24 h; for viability at 1 µg/mL: read-out: Validity (%) for sample concentrations (µg/mL) 1; for viability at 10 µg/mL: read-out: Validity (%) for sample concentrations (µg/mL) 10; for viability at 31.25 µg/mL: read-out: Validity (%) for sample concentrations (µg/mL) 31.25; for viability at 62.5 µg/mL: 62.50 µg/mL, read-out: Validity (%) for sample concentrations (µg/mL) 62.50; for viability at 125 µg/mL: read-out: Validity (%) for sample concentrations (µg/mL) 125; for viability at 250 µg/mL: read-out: Validity (%) for sample concentrations (µg/mL) 250; for viability at 500 µg/mL: read-out: Validity (%) for sample concentrations (µg/mL) 500; for viability at 1000 µg/mL: read-out: Validity (%) for sample concentrations (µg/mL) 1000
MDA-MB-231 cells = experiment: FACS analysis, Annexin V and PI staining; type: cell-based, human; details: 24 h, 5g 500, 6c 105, 6d 170, 6k 130 µg/mL
Method: To uncover the mechanism of cell death for the compounds 5h, 6c, 6d and 6k on WI-38, A549, and MDA-MB-231 cells; Annexin v and propedium Iodide (PI) were used. In brief, WI-38, A549, MDA-MB-231 cells were cultured in 10 tissue culture dish with initial number 4 × 10^5 cell/Ml in RPMI growth media. […] After 24 h incubations, cells were washed and trypsinized and suspended in 50 μL 1X Annexin v binding buffer followed by adding 5 μL FITC Annexin V and incubated for 15 min at room temperature then 5 μL of PI were added to each tube. Finally, 400 μL of 1X Annexin v binding buffer were added to each tube and analyzed using Becton-Dickinson FACS Caliber.

| IC50 [4] | Structure (SMILES) | zone of inhibition at 500 µg/mL [1] | zone of inhibition at 500 µg/mL [2] | zone of inhibition at 500 µg/mL [3] | viability at 1 µg/mL [4] | viability at 10 µg/mL [4] | viability at 31.25 µg/mL [4] | viability at 62.5 µg/mL [4] | viability at 125 µg/mL [4] | viability at 250 µg/mL [4] | viability at 500 µg/mL [4] | viability at 31.25 µg/mL [5] | viability at 62.5 µg/mL [5] | viability at 125 µg/mL [5] | viability at 250 µg/mL [5] | viability at 500 µg/mL [5] | IC50 [5] | viability at 1 µg/mL [6] | viability at 10 µg/mL [6] | viability at 31.25 µg/mL [6] | further results |
| --- | --- | --- | --- | --- | --- | --- | --- | --- | --- | --- | --- | --- | --- | --- | --- | --- | --- | --- | --- | --- | --- |
| 104 µg/mL (≈ 195 µM) | O=C1C(Cl)C(c2ccc(Cl)cc2)N1c1nc(-c2cc(Cl)cc3c2-c2ccc(Cl)cc2C3)cs1 (stereo not drawn) [6c, 3-Chloro-4-(4-chlorophenyl)-1-(4-(2,7-dichloro-9H-fluoren-4-yl)thiazol-2-yl)azetidin-2-one] | 6 mm | 10 mm | 7 mm | 92.8% | 77.8% | 63.1% | 53.1% | 46% | 29.4% | 24.8% | 94.5% | 65.9% | 63.4% | 59.5% | 55.5% | > 500 µg/mL | 92.4% | 80.7% | 59.8% | viability at 62.5 µg/mL [6]: 54.2%; viability at 125 µg/mL [6]: 31.3%; viability at 250 µg/mL [6]: 25.1%; viability at 500 µg/mL [6]: 19.7%; viability at 1000 µg/mL [6]: 17.7%; IC50 [6]: 85 µg/mL (≈ 160 µM); apoptotic cell death (of total cell number) (MDA-MB-231 cells): 80.32%; necrotic cell death (of total cell number) (MDA-MB-231 cells): 2.15% |
| 169 µg/mL (≈ 293 µM) | O=C1C(Cl)C(c2ccc(Br)cc2)N1c1nc(-c2cc(Cl)cc3c2-c2ccc(Cl)cc2C3)cs1 (stereo not drawn) [6d, 4-(4-Bromophenyl)-3-chloro-1-(4-(2,7-dichloro-9H-fluoren-4-yl)thiazol-2-yl)azetidin-2-one] | 6 mm | 10 mm | 3 mm | 93.3% | 89.1% | 75.8% | 63.3% | 53.1% | 27.7% | 24% | 92% | 88.1% | 78.6% | 67.5% | 67.7% | > 500 µg/mL | 97.9% | 92.6% | 77.2% | Mean zone of inhibition [3]: low activity; viability at 62.5 µg/mL [6]: 67.3%; viability at 125 µg/mL [6]: 49%; viability at 250 µg/mL [6]: 24.6%; viability at 500 µg/mL [6]: 20.4%; viability at 1000 µg/mL [6]: 19.4%; IC50 [6]: 117 µg/mL (≈ 203 µM); apoptotic cell death (of total cell number) (MDA-MB-231 cells): 55.355% |
| 131 µg/mL (≈ 260 µM) | O=C1C(Cl)C(c2cccs2)N1c1nc(-c2cc(Cl)cc3c2-c2ccc(Cl)cc2C3)cs1 (stereo not drawn) [6k, 3-Chloro-1-(4-(2,7-dichloro-9H-fluoren-4-yl)thiazol-2-yl)-4-(thiophen-2-yl)azetidin-2-one] | 3 mm | 11 mm | 7 mm | 96.4% | 90.7% | 78.6% | 69.6% | 51% | 33.3% | 19.1% | 77.9% | 64% | 61.3% | 60.3% | 58.3% | > 500 µg/mL | 90.8% | 80.8% | 76% | viability at 62.5 µg/mL [6]: 70.6%; viability at 125 µg/mL [6]: 55.4%; viability at 250 µg/mL [6]: 39.8%; viability at 500 µg/mL [6]: 28.7%; viability at 1000 µg/mL [6]: 23%; IC50 [6]: 203 µg/mL (≈ 403 µM); apoptotic cell death (of total cell number) (MDA-MB-231 cells): 67.25%; necrotic cell death (of total cell number) (MDA-MB-231 cells): 4.56% |
